8 compounds from patent US3978129A, “Alkenyl- and alkanylamines” (A. H. Robins Company, Incorporated, priority 1972, dated 1976) can be followed below.

Molecules are shown by their SMILES. Counter-ions that a name gives are not always drawn.

The assay has as its system depressant effects of tetrabenazine. The assay is described as follows: Blocking the depressant effects induced in mice by intravenous tetrabenazine (modified Englehardt procedure, increased tetrabenazine dosage). Format: in vivo. As to conditions: Mus musculus, ip, compounds I.P. How it is done: The compounds were administered to mice intraperitoneally and the effectiveness of the compounds in blocking the depressant effects which are induced in mice by intravenous administration of 2-oxo-3-isobutyl-9,10-di-methoxy-1,2,3,4,6,7-hexahydro-11-bh-benzo[a]quinolizine (tetrabenazine was determined. The procedure used was a modification of that given by Englehardt, E. L. et al, J. Med. Chem. 11 (2) : 325(1968) wherein tetrabenazine dosage is increased over the Englehardt procedure. The ED50 of the compounds tested in blocking the depressant activity of tetrabenazine are given in Table I.
As a reminder, the ED50 is the dose that gives a 50% effect, or the effect in half of the subjects. `CN(C)CCC(=CCCCl)c1ccccc1` [Example 1, 6-Chloro-N,N-dimethyl-3-phenyl-3-hexenylamine Hydrochloride] showed an ED50 of 2.5 mg/kg.

`CN(C)CCC(=CCCBr)c1ccccc1` [Example 3, 6-Bromo-N,N-dimethyl-N,N-dimethyl-3-hexenylamine Hydrobromide] yielded an ED50 of 1.9 mg/kg.

As for `CN(C)CCC=C(CCCCl)c1ccccc1` [Example 5, 7-Chloro-N,N-dimethyl-4-phenyl-3-heptenylamine Oxalate], the 50% effective dose (ED50) was 10 mg/kg.

`CN(C)CCCC(=CCCCl)c1ccccc1` [Example 4, 7-Chloro-N,N-dimethyl-4-phenyl-4-heptenylamine Oxalate] had an ED50 of 20 mg/kg.

Regarding `CN(C)CCC(=CCCCl)c1cccc(C(F)(F)F)c1` [Example 7, 6-Chloro-N,N-dimethyl-3-(3-trifluoromethylphenyl)-3-hexenylamine Oxalate], the 50% effect level (ED50) was put at a dose of 15.5 mg/kg.

As to `CN(C)CCC(CCCCl)c1ccccc1` (centres unmarked) [Example 8, 6-Chloro-N,N-dimethyl-3-phenylhexylamine Hydrochloride], the 50% effect level (ED50) was put at a dose of 3.6 mg/kg.

Compound `COc1ccc(C(=CCCCl)CCN(C)C)cc1` [Example 6, 6-Chloro-N,N-dimethyl-3-(4-methoxyphenyl)-3-hexenylamine Hydrochloride] had an ED50 of 28.5 mg/kg.

Regarding `CN(C)CC=C(CCCBr)c1ccccc1` [Example 2, 6-Bromo-N,N-dimethyl-3-phenyl-2-hexenylamine Hydrobromide], the ED50 worked out at 0.5 mg/kg.
